Common to all, as to type: in vivo, rabbit
Test [1] concerns REC1_2 (MspI AATC 108) mRNA. Nature of the test: TOGA analysis, REC1_2. The following applies: REC1_2, AATC 108; rabbit aorta; 14 days cholesterol + (R)-enantiomer. As to the method:
(§1) To perform the studies, New Zealand male rabbits weighing 2.0-2.5 kg (Charles River, Calco, Italy) were used. The rabbits were divided into three groups and maintained in identical experimental conditions: (1) control group (n=15); rabbits fed a cholesterol-rich diet; (2) lercanidipine-treated group (n=15); rabbits fed a cholesterol-rich diet and also treated with lercanidipine (3 mg/kg/week); and (3) (R)-lercanidipine-treated group (n=5); rabbits fed a cholesterol-rich diet and also treated with the (R)-enantiomer of lercanidipine (3 mg/kg/week). After a 2 week period of subcutaneous, once a week, pretreatment with 3 mg/kg/week of lercanidipine or (R)-lercanidipine, the rabbits received a daily cholesterol supplement for up to 8 weeks or 2 weeks, respectively. In the following examples, use of the term “lercanidipine” refers to the racemic mixture of lercanidipine hydrochloride, whereas “(R)-lercanidipine” refers to the (R)-enantiomer of lercanidipine hydrochloride.
(§2) The mRNA from the above-described groups was isolated from aorta at different time points, resulting in the following mRNA samples: (1) Day 0 Control=no administered cholesterol, no lercanidipine; (2) Day 0+lercanidipine=no administered cholesterol, treatment with lercanipidine (2 weeks; 3 mg/kg/week); (3) Day 14 Control=cholesterol diet for two weeks, no lercanidipine; (4) Day 14+lercanidipine=cholesterol diet for two weeks, treatment with lercanidipine (four weeks; 3 mg/kg/week); (5) Week 8 Control=cholesterol diet for 8 weeks, no lercanidipine; and (6) Week 8+lercanidipine=cholesterol diet for 8 weeks, treatment with lercanidipine (10 weeks; 3 mg/kg/week). In addition, Day 14+(R)-lercanidipine mRNA samples were prepared from rabbits given a cholesterol diet for two weeks and treated with 3 mg/kg/week (R)-lercanidipine for four weeks.
(§3) Aorta mRNAs were prepared in the following manner. First, the aortas from each experimental group were retrieved and shredded using a polytron homogenizer. The samples were further homogenized using a teflon pestle, after which the cellular debris, nuclei, and blood cells were pelleted by centrifugation. The supernatants were extracted twice with phenol-chloroform-isoamyl alcohol and once with chloroform-isoamyl alcohol. RNA was then precipitated from the aqueous phase with ethanol. The poly A+ mRNA was prepared using standard methods of polyA selection known in the art (Schriber et al., J. Mol. Biol., 142:93-116 (1980)).
(§4) The isolated mRNA was analyzed using a method of simultaneous sequence-specific identification of mRNAs known as TOGA, described in U.S. Pat. No. 5,459,037 and U.S. Pat. No. 5,807,680, hereby incorporated herein by reference. In a preferred embodiment, the TOGA method further comprised an additional PCR step performed using a mixture of four 5′ PCR primers and cDNA templates prepared from a population of antisense cRNAs. A final PCR step that used a mixture of 256 5′ PCR primers produced PCR products that were cDNA fragments that corresponded to the 3′-region of the starting mRNA population. The produced PCR products were then identified by: (a) the initial 5′ sequence comprising the sequence remainder of the recognition site of the restriction endonuclease used to cut and isolate the 3′ region plus the sequence of the preferably four parsing bases immediately 3′ to the remainder of the recognition site, preferably the sequence of the entire fragment; and (b) the length of the fragment. […]

Test [2] deals with REC1_6 (MspI ATCC 176) mRNA, ferritin light chain subunit. In words: TOGA analysis, REC1_6. The following applies: REC1_6, ATCC 176; rabbit aorta; 14 days cholesterol + (R)-enantiomer. As to the method:
as §1, §2, §3, §4

Test [3] has as its system REC1_20 (TTAC 210) mRNA, phosphofructo-1-kinase C isozyme. Nature of the test: TOGA analysis, REC1_20. The settings on record: REC1_20 TTAC 210; rabbit aorta, cholesterol 14 days. As to the method:
as §1, §2, §3, §4

The subject of test [4] is REC1_3 (MspI ACGG 162) mRNA. Nature of the test: TOGA analysis, REC1_3. The settings on record: REC1_3, ACGG 162; rabbit aorta; 14 days cholesterol + (R)-enantiomer. As to the method:
as §1, §2, §3, §4

The subject of test [5] is REC1_18 (MspI TGGT 241) mRNA. In words: TOGA analysis, REC1_18. The settings on record: REC1_18 TGGT 241; rabbit aorta, cholesterol 14 days. As to the method:
as §1, §2, §3, §4

Test [6] has as its system REC1_12 (GCCC 232) mRNA, alpha smooth muscle actin. In words: TOGA analysis, REC1_12. The settings on record: REC1_12 GCCC 232; rabbit aorta, 14 days cholesterol. As to the method: as §1, §2, §3, §4
For test [7], the system named is REC1_21 (TTCC 165) mRNA, elastin gene. Nature of the test: TOGA analysis, REC1_21. The settings on record: REC1_21 TTCC 165; rabbit aorta, cholesterol 14 days. As to the method:
as §1, §2, §3, §4

The next test relates to REC1_17 (TCGT 199) mRNA. In words: TOGA analysis, REC1_17. The settings on record: REC1_17 TCGT 199; rabbit aorta, 14 days cholesterol, (R)-enantiomer. As to the method:
as §1, §2, §3, §4

The next test relates to REC1_5 (AGTG 184) mRNA. In words: TOGA analysis, REC1_5. The settings on record: REC1_5, AGTG 184; rabbit aorta; 14 days cholesterol + (R)-enantiomer. As to the method:
as §1, §2, §3, §4

The subject of test [8] is REC1_36 (digital address TTAG 155) mRNA. In words: TOGA analysis, REC1_36. The settings on record: REC1_36 TTAG 155; rabbit aorta, cholesterol 14 days. As to the method:
as §1, §2, §3
The isolated mRNA was analyzed using a method of simultaneous sequence-specific identification of mRNAs known as TOGA, described in U.S. Pat. No. 5,459,037 and U.S. Pat. No. 5,807,680, hereby incorporated herein by reference. In a preferred embodiment, the TOGA method further comprised an additional PCR step performed using a mixture of four 5′ PCR primers and cDNA templates prepared from a population of antisense cRNAs. A final PCR step that used a mixture of 256 5′ PCR primers produced PCR products that were cDNA fragments that corresponded to the 3′-region of the starting mRNA population. The produced PCR products were then identified by: (a) the initial 5′ sequence comprising the sequence remainder of the recognition site of the restriction endonuclease used to cut and isolate the 3′ region plus the sequence of the preferably four parsing bases immediately 3′ to the remainder of the recognition site, preferably the sequence of the entire fragment; and (b) the length of the fragment. These two parameters, sequence and fragment length, were used to compare the obtained PCR products to a database of known polynucleotide sequences. Since the length of the obtained PCR products includes known vector sequences at the 5′ and 3′ ends of the insert, the sequence of the insert provided in the sequence listing is shorter than the fragment length that forms part of the digital address.
The method yields Digital Sequence Tags (DSTs), that is, polynucleotides that are expressed sequence tags of the 3′ end of mRNAs. […]

For the next test, the system named is REC1_16 (TCGG 195) mRNA. Nature of the test: TOGA analysis, REC1_16. The settings on record: REC1_16 TCGG 195; rabbit aorta, 14 days cholesterol, (R)-enantiomer. As to the method: as §1, §2, §3, §4

Regarding `COC(=O)C1=C(C)NC(C)=C(C(=O)OC(C)(C)CN(C)CCC(c2ccccc2)c2ccccc2)[C@@H]1c1cccc([N+](=O)[O-])c1` [Lercanidipine (R)], the “level of gene expression (TOGA), 14 Day hypercholesterol + Lercanidipine (R)” value in test [1] is given as 1250; in test [2] it was 365; in test [4], 197; in the test with REC1_17 (TCGT 199) mRNA it was 1117; with REC1_5 (AGTG 184) mRNA it was 643; in the test with REC1_16 (TCGG 195) mRNA, 1554. For the same compound, the “level of gene expression, 14 Day hypercholesterol + Lercanidipine (R)” value in [3] was determined as 669; in test [5], 330; in [6], 3993; in test [7] it was 1574; in test [8] it was 500.

The record behind these values is patent publication US20030215817A1, “Modulation of gene expression in formation of fatty atherosclerotic lesions” (priority 2003, published 2003).
